In US10064848B2, “Pyridic ketone derivatives, method of preparing same, and pharmaceutical application thereof” (Shanghai Hengrui Pharmaceutical Co., Ltd., priority 2013, dated 2018) one finds IC50 data, which are given here for 21 compounds.

The target of test [1] is T1, MEK1 (Recombinant Human Protein) (Homo sapiens, UniProt Q02750).
T1 construct: purchased Invitrogen PV3093
The test is described as follows: MEK1 kinase inhibition assay (Z'-LYTE Kinase Assay Kit-Ser/Thr 03 Peptide). Format: biochemical. To be noted: 4 hours at 37° C, read-out: IC50 for inhibiting MEK kinase (MEK1). As for the experimental part:
MEK1 kinase activity was tested in vitro by the following method.
MEK kinase used in the assay: MEK1 (Recombinant Human Protein, Invitrogen, Catalog No. PV3093).
Kit used in the assay: Z′-LYTE™ Kinase Assay Kit-Ser/Thr 03 Peptide (Invitrogen, Catalog No. PV3176).
The following in vitro assay was used to determine the activity of the compounds of the present invention for inhibiting the […] MEK kinase. The test compound was dissolved in dimethyl sulfoxide to the desired concentration. 1× Buffer A (Invitrogen, Catalog No. PV3189) was prepared, ATP was diluted with 1× Buffer A to obtain 400 μM ATP solution, appropriate amounts of Z′-LYTE™ Ser/Thr 03 Peptide (Invitrogen, Catalog No. PV3200), MEK kinase (MEK1) Enzymes and 1× Buffer A were mixed, and appropriate amounts of Z′-LYTE™ Ser/Thr 03 phosphoPeptide substrate (Invitrogen, Catalog No. PV3215) and 1× Buffer A were formulated into a mixture to be tested. The 4% DMSO solution of the test compound was prepared from 1× buffer and DMSO solution of the test compound. 2.5 μL DMSO solution of the test compound was added to a reaction well, and then 1× Buffer A, 2.5 μL of 400 μM ATP solution, 5 μL of enzyme and substrate mixture were added to become a 10 μL of reaction system. The reaction system was incubated for 4 hours at 37° C., and a mixture was prepared according to Reagent A:Buffer B=1:1024. 5 μL of a mixture of Reagent A (Invitrogen, Catalog No. PV3295) and Buffer B (Invitrogen, Catalog No. P3127) was added to a reaction well, the reaction system was incubated for 60 minutes at 25° C. The fluorescence was read by a NovoStar ELISA with excitation wavelength: 400 nm, and emission wavelength: 445 nm and 520 nm.
The activity of the compounds of the present invention: The above assay was used to determine the biochemical activity of the compounds of the present invention for inhibiting MEK kinase (MEK1).

For a further test, the system named is Colo205 cell. The test is described as follows: Proliferation inhibition on Colo205 (CCK8). Format: cell-based. The following applies: Homo sapiens, COLO 205, Colo205, 72 hours. An excerpt:
Cell line used in the assay: Colo205 (Cell Bank of the Chinese Academy of Sciences, Catalog No. TCHu102).
The following in vitro cell assay is to determine the activity of the compounds of the present invention for inhibiting the proliferation of human colon cancer cell, and the activity is expressed as IC50. General programs of this kind of assay were as follows: First, the cell line to be tested (purchased from Cell Bank of the Chinese Academy of Sciences) was inoculated in a 96-well culture plate with a suitable cell concentration of 4000 cells/mL medium, and was cultured in a carbon dioxide incubator at 37° C., then grown overnight. The medium was replaced by new medium added with a series of concentrations (10000 nM, 1000 nM, 100 nM, 10 nM, 1 nM, 0.1 nM) of the test compound solutions. The plates were placed back in the incubator, and continuously cultured for 72 hours. After 72 hours, CCK8 (Cell Counting Kit-8, Catalog No.: CK04, purchased from colleagues chemical company) method was used to determine the proliferation inhibition activity of the test compounds. IC50 values were calculated from the inhibition data of the test compounds at a series of different concentrations.
The above assay was used to determine the biochemical activity of the compounds of the present invention.

T1 sequence (Q02750 whole entry): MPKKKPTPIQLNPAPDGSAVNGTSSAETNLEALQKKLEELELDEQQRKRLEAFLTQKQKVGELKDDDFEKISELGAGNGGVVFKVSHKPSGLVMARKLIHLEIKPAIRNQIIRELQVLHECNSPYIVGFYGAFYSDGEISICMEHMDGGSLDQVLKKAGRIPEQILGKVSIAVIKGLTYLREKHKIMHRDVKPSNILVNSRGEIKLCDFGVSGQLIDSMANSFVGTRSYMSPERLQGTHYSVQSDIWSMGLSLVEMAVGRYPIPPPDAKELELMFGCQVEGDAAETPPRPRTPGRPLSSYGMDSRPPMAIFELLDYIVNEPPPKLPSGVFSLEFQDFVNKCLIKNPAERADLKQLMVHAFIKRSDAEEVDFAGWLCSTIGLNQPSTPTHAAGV

The term IC50 denotes the concentration at which inhibition is half-maximal. For the compound `Cc1c(Cl)cccc1Oc1cc(=O)n(C)c(Nc2ccc(I)cc2F)c1C(N)=O` [Example 14, 4-(3-chloro-2-methylphenoxy)-2-((2-fluoro-4-iodophenyl)amino)-1-methyl-6-oxo-1,6-dihydropyridine-3-carboxamide], the IC50 in test [1] is 6.2 nM; with Colo205 cell, 4.2 nM. In the case of `Cc1cccc(C)c1Oc1cc(=O)n(C)c(Nc2ccc(I)cc2F)c1C(N)=O` [Example 21, 4-(2,6-dimethylphenoxy)-2-((2-fluoro-4-iodophenyl)amino)-1-methyl-6-oxo-1,6-dihydropyridine-3-carboxamide], the IC50 in test [1] was found to be 6.3 nM; in the test on Colo205 cell it was 10.2 nM. In the same order, the values of `Cc1cc(Oc2cc(=O)n(C)c(Nc3ccc(I)cc3F)c2C(N)=O)ccn1` [Example 32, 2-((2-fluoro-4-iodophenyl)amino)-1-methyl-4-((2-methylpyridin-4-yl)oxy)-6-oxo-1,6-dihydropyridine-3-carboxamide] are 5.5 nM and 4 nM.

Turning to `CC(=O)c1cccc(Oc2cc(=O)n(C)c(Nc3ccc(I)cc3F)c2C(N)=O)c1C` [Example 13, 4-(3-acetyl-2-methylphenoxy)-2-((2-fluoro-4-iodophenyl)amino)-1-methyl-6-oxo-1,6-dihydropyridine-3-carboxamide], the results for the IC50 (in test [1]; in the test on Colo205 cell) were 5.5 nM and 2.9 nM, respectively. Take `CCS(=O)(=O)Nc1cccc(Oc2c(C(N)=O)c(Nc3ccc(I)cc3F)n(C)c(=O)c2F)c1C` [Example 6, 4-(3-(ethylsulfonamido)-2-methylphenoxy)-2-((2-fluoro-4-iodophenyl)amino)-1-methyl-5-fluoro-6-oxo-1,6-dihydropyridine-3-carboxamide]: in test [1], the IC50 was found to be 3.4 nM. For `Cc1ccc(Oc2cc(=O)n(C)c(Nc3ccc(I)cc3F)c2C(N)=O)c(F)c1` [Example 17, 4-(2-fluoro-4-methylphenoxy)-2-((2-fluoro-4-iodophenyl)amino)-1-methyl-6-oxo-1,6-dihydropyridine-3-carboxamide], the IC50 in test [1] amounted to 8.4 nM; with Colo205 cell, 2 nM. Consider `CCS(=O)(=O)Nc1cccc(Oc2cc(=O)n(C)c(Nc3ccc(I)cc3F)c2C(=O)NC)c1C` [Example 2, N,1-dimethyl-4-(3-(ethylsulfonamido)-2-methylphenoxy)-2-((2-fluoro-4-iodophenyl)amino)-6-oxo-1,6-dihydropyridine-3-carboxamide], for which the IC50 in test [1] worked out at 19 nM; with Colo205 cell, 4.7 nM. Turning to `Cc1cccc(Oc2cc(=O)n(C)c(Nc3ccc(I)cc3F)c2C(N)=O)c1C` [Example 18, 4-(2,3-dimethylphenoxy)-2-((2-fluoro-4-iodophenyl)amino)-1-methyl-6-oxo-1,6-dihydropyridine-3-carboxamide], the IC50 in test [1] was found to be 7.9 nM; in the test on Colo205 cell it was 1.4 nM. As to `Cc1ccccc1Oc1cc(=O)n(C)c(Nc2ccc(I)cc2F)c1C(N)=O` [Example 23, 4-(2-methylphenoxy)-2-((2-fluoro-4-iodophenyl)amino)-1-methyl-6-oxo-1,6-dihydropyridine-3-carboxamide], the IC50 came out at 4.2 nM in test [1] and 0.4 nM in the test on Colo205 cell. As to `Cc1ccncc1Oc1cc(=O)n(C)c(Nc2ccc(I)cc2F)c1C(N)=O` [Example 33, 2-((2-fluoro-4-iodophenyl)amino)-1-methyl-4-((4-methylpyridin-3-yl)oxy)-6-oxo-1,6-dihydropyridine-3-carboxamide], in test [1], the IC50 came to 7.3 nM.

As to `Cc1c(Oc2cc(=O)n(C)c(Nc3ccc(I)cc3F)c2C(N)=O)cccc1O[C@H]1CCOC1` [Example 9, (S)-2-((2-fluoro-4-iodophenyl)amino)-1-methyl-4-(2-methyl-3-((tetrahydrofuran-3-yl)oxy)phenoxy)-6-oxo-1,6-dihydropyridine-3-carboxamide], the IC50 in test [1] was determined as 6 nM; in the test with Colo205 cell, 0.3 nM.

As to `Cc1ccc(Oc2cc(=O)n(C)c(Nc3ccc(I)cc3F)c2C(N)=O)c(Cl)c1` [Example 15, 4-(2-chloro-4-methylphenoxy)-2-((2-fluoro-4-iodophenyl)amino)-1-methyl-6-oxo-1,6-dihydropyridine-3-carboxamide], the IC50 in test [1] stood at 8.2 nM; in the test with Colo205 cell, 10.2 nM.

Turning to `Cc1c(NC(=O)C2CC2)cccc1Oc1cc(=O)n(C)c(Nc2ccc(I)cc2F)c1C(N)=O` [Example 7, 4-(3-(cyclopropanecarboxamido)-2-methylphenoxy)-2-((2-fluoro-4-iodophenyl)amino)-1-methyl-6-oxo-1,6-dihydropyridine-3-carboxamide], the IC50 stood at 5.5 nM in test [1] and 0.4 nM with Colo205 cell. Turning to `Cc1ccc(F)cc1Oc1cc(=O)n(C)c(Nc2ccc(I)cc2F)c1C(N)=O` [Example 25, 4-(5-fluoro-2-methylphenoxy)-2-((2-fluoro-4-iodophenyl)amino)-1-methyl-6-oxo-1,6-dihydropyridine-3-carboxamide], the IC50 amounted to 5.9 nM in test [1] and 1 nM in the test on Colo205 cell. Consider `CCC(=O)Nc1cccc(Oc2cc(=O)n(C)c(Nc3ccc(I)cc3F)c2C(N)=O)c1C` [Example 8, 4-(3-propionamido-2-methylphenoxy)-2-((2-fluoro-4-iodophenyl)amino)-1-methyl-6-oxo-1,6-dihydropyridine-3-carboxamide], for which the IC50 in test [1] was found to be 3.2 nM; in the test with Colo205 cell it was 0.5 nM. As to `COc1cccc(Oc2cc(=O)n(C)c(Nc3ccc(I)cc3F)c2C(N)=O)c1C` [Example 16, 4-(3-methoxy-2-methylphenoxy)-2-((2-fluoro-4-iodophenyl)amino)-1-methyl-6-oxo-1,6-dihydropyridine-3-carboxamide], the values for the IC50 (in test [1]; with Colo205 cell) were 9.5 nM and 11.5 nM, respectively. In the case of `Cc1c(Oc2cc(=O)n(C)c(Nc3ccc(I)cc3F)c2C(N)=O)cccc1C(=O)NC1CC1` [Example 11, 4-(3-(cyclopropylcarbamoyl)-2-methylphenoxy)-2-((2-fluoro-4-iodophenyl)amino)-1-methyl-6-oxo-1,6-dihydropyridine-3-carboxamide], the IC50 in test [1] amounted to 5.5 nM; with Colo205 cell, 4.3 nM. For `Cc1c(F)cccc1Oc1cc(=O)n(C)c(Nc2ccc(I)cc2F)c1C(=O)NC[C@H](O)CO` [Example 28, (S)-N-(2,3-dihydroxypropyl)-4-(3-fluoro-2-methylphenoxy)-2-((2-fluoro-4-iodophenyl)amino)-1-methyl-6-oxo-1,6-dihydropyridine-3-carboxamide], the IC50 in test [1] stood at 26 nM. Still for that read-out and setting: with `Cc1c(F)cccc1Oc1c(C(N)=O)c(Nc2ccc(I)cc2F)n(C)c(=O)c1F` [Example 26, 5-fluoro-4-(3-fluoro-2-methylphenoxy)-2-((2-fluoro-4-iodophenyl)amino)-1-methyl-6-oxo-1,6-dihydropyridine-3-carboxamide] the figure was 3.9 nM; with `CCS(=O)(=O)Nc1cccc(Oc2c(C(N)=O)c(Nc3ccc(I)cc3F)n(C)c(=O)c2Cl)c1C` [Example 5, 4-(3-(ethylsulfonamido)-2-methylphenoxy)-2-((2-fluoro-4-iodophenyl)amino)-1-methyl-5-chloro-6-oxo-1,6-dihydropyridine-3-carboxamide], 4 nM; with `Cc1c(F)cccc1Oc1cc(=O)n(C)c(Nc2ccc(I)cc2F)c1C(=O)NC[C@@H](O)CO` [Example 27, (R)-N-(2,3-dihydroxypropyl)-4-(3-fluoro-2-methylphenoxy)-2-((2-fluoro-4-iodophenyl)amino)-1-methyl-6-oxo-1,6-dihydropyridine-3-carboxamide], 28.3 nM.
